Measurements from US6620828B2, “Thiazole compounds and pharmaceutical compositions for inhibiting protein kinases and methods for their use” (Agouron Pharmaceuticals, Inc., priority 1999, dated 2003).

What was measured:
Type in all cases: biochemical
[1] = biological target: CDK2/Cyclin A complex (Homo sapiens, UniProt P24941); assay: CDK2/Cyclin A assay; conditions: 1.0 μM; combinatorial library compounds
Summary of the method: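 Radiometric assay: 150 nM CDK2/cyclin A (insect-cell CDK2, truncated cyclin A) phosphorylates His-tagged Rb fragment (residues 386-928) with 25 μM ATP plus [32P]ATP, pH 7.4 HEPES, 2% DMSO, 30 °C for 20 min. Filter-captured product counted by phosphorimager; apparent Ki from competitive or tight-binding inhibition fits.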

[2] = biological target: T1, phosphorylated VEGF-R2Δ50 (FLVK-P) (Homo sapiens, UniProt P35968, DEL940-989/E990V); assay: VEGF-R2 coupled spectrophotometric (FLVK-P) assay; conditions: read-out: VEGF % inhibition at 20 μM, 20 μM; combinatorial library compounds
T1 construct: VEGF-R2Δ50 contains residues 806-939 and 990-1171; made in house; host or cells: baculovirus/insect cells
Summary of the method: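 Baculovirus-expressed human VEGF-R2Δ50 (residues 806-939/990-1171, E990V) was autophosphorylated with 3 mM ATP, 40 mM MgCl2 for 2 h at 4° C. ADP formation was coupled via PK/LDH to NADH oxidation, read at 340 nm, with 5.1 mM poly(E4Y1), 1 mM ATP, 25 mM MgCl2, Hepes pH 7.5. Ki came from activity across compound concentrations.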

[3] = biological target: T2, CDK4/Cyclin D3 complex (Homo sapiens, UniProt P11802); assay: CDK4/Cyclin D assay; conditions: 1.0 μM; combinatorial library compounds
T2 construct: made in house; host or cells: insect cells co-infected with baculovirus vectors
Protocol: CDK4/Cyclin D Construct for Assay: A complex of human CDK4 and cyclin D3, or a complex of cyclin DI and a fusion protein of human CDK4 and glutathione-S-transferase (GST-CDK4), was purified using traditional biochemical chromatographic techniques from insect cells that had been co-infected with the corresponding baculovirus expression vectors.
CDK2/Cyclin A and CDK4/Cyclin D Assays
Cyclin-dependent kinase activity was measured by quantifying the enzyme-catalyzed, time-dependent incorporation of radioactive phosphate from [^32P]ATP into a recombinant fragment of the retinoblastoma protein. Unless noted otherwise, assays were performed in 96-well plates in a total volume of 50 μL, in the presence of 10 mM HEPES (N-[2-hydroxyethyl]piperazine-N′-[2-ethanesulfonic acid]) (pH 7.4), 10 mM MgCl2, 25 μM adenosine triphosphate (ATP), 1 mg/mL ovalbumin, 5 μg/mL leupeptin, 1 mM dithiothreitol, 10 mM β-glycerophosphate, 0.1 mM sodium vanadate, 1 mM sodium fluoride, 2.5 mM ethylene glycol-bis(β-aminoethyl ether)-N,N,N′N′-tetraacetic acid (EGTA), 2% (v/v) dimethylsulfoxide, and 0.03-0.2 μCi [^32P]ATP. The substrate (0.3-0.5 μg) was purified recombinant retinoblastoma protein fragment (Rb) (residues 386-928 of the native retinoblastoma protein; 62.3 kDa, containing the majority of the phosphorylation sites found in the native 106-kDa protein, as well as a tag of six histidine residues for ease of purification). Reactions were initiated with CDK2 (150 nM CDK2/Cyclin A complex) or CDK4 (50 nM CDK4/Cyclin D3 complex), incubated at 30° C., and terminated after 20 minutes by the addition of ethylenediaminetetraacetic acid EDTA) to 250 mM. The phosphorylated substrate was then captured on a nitrocellulose membrane using a 96-well filtration manifold, and unincorporated radioactivity was removed by repeated washing with 0.85% phosphoric acid. Radioactivity was quantified by exposing the dried nitrocellulose membranes to a phosphorimager. Apparent Ki values were measured by assaying enzyme activity in the presence of different compound concentrations and subtracting the background radioactivity measured in the absence of enzyme. The kinetic parameters (kcat, Km for ATP) were measured for each enzyme under the usual assay conditions by determining the dependence of initial rates on ATP concentration. The data were fit to an equation for competitive inhibition using Kaleidagraph (Synergy Software), or were fit to an equation for competitive tight-binding inhibition using the software KineTic (BioKin, Ltd.). Measured Ki values for known inhibitors against CDK4 and CDK2 agreed with published IC50 values. The specific activity of CDK4 was the same whether complexed to full-length cyclin D3 or the truncated Cyclin D3 construct; both complexes also yielded very similar Ki values for selected inhibitors.

[4] = biological target: T3, FL-CHK1 (Homo sapiens, UniProt O14757); assay: CHK1 assay; conditions: 20 μM; combinatorial library compounds
T3 construct: C-terminally His-tagged full-length human CHK1 (FL-CHK1); 6xHis (C); made in house; host or cells: baculovirus/insect cells
T3 sequence (O14757 1-476): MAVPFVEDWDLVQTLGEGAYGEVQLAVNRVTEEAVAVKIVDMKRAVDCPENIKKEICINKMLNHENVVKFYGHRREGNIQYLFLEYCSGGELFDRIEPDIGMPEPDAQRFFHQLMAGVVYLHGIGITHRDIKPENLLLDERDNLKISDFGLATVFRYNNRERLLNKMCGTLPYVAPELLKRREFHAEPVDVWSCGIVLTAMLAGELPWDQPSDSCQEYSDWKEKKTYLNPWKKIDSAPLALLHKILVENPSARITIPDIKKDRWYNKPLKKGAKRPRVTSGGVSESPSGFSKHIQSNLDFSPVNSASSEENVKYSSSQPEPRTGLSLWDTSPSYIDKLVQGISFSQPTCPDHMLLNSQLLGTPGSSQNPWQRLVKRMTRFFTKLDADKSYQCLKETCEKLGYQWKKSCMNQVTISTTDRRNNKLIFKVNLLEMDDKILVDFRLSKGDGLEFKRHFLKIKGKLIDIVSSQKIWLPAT
Summary of the method: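 Full-length human CHK1 with C-terminal 6×His tag, made in baculovirus/insect cells, 10 nM, phosphorylating 0.125 mM Syntide-2 with 0.15 mM ATP in 50 mM Tris pH 7.5, 25 mM MgCl2, 400 mM NaCl. PK/LDH-coupled NADH oxidation read at 340 nm. Ki from initial rates over varied compound concentrations.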

T2 sequence (P11802 whole entry): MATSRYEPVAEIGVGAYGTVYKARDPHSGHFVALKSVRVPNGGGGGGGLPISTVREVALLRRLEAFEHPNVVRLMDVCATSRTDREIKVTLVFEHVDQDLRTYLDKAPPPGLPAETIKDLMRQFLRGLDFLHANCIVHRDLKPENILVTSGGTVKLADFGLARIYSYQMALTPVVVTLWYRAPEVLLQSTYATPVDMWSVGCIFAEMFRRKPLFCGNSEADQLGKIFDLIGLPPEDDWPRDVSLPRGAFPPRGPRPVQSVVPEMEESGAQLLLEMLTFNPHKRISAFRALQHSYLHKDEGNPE
T2 sequence (P30281 whole entry partner): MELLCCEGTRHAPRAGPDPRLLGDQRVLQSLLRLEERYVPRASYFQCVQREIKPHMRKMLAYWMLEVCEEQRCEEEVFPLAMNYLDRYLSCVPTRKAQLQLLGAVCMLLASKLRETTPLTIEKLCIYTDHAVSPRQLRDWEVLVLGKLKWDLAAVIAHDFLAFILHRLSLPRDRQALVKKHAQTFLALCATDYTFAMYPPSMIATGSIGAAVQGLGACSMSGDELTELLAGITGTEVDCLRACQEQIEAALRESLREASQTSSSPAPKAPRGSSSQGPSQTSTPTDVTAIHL
T1 sequence (P35968 with tags, fused parts or gaps DEL940-989/E990V limits assumed): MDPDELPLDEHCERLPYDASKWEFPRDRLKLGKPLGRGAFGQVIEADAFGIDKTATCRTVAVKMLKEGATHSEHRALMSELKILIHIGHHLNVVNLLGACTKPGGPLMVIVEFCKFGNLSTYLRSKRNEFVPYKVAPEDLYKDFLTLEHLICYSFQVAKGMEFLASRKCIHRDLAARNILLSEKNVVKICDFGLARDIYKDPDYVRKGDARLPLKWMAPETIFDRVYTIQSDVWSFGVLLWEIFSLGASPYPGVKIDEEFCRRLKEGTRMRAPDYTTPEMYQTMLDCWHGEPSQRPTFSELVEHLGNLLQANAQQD

| Compound | inhibition at 1 µM [1] | inhibition at 20 µM [2] | inhibition at 1 µM [3] | inhibition at 20 µM [4] |
| --- | --- | --- | --- | --- |
| Nc1nc(Nc2ccc(S(N)(=O)=O)cc2)sc1-c1nc(-c2ccc3oc4ccccc4c3c2)cs1 | 45.7% | 18% | 57.5% | 18.3% |
| CC1(C)CCC(C)(C)c2cc(-c3csc(-c4sc(Nc5ccc(S(N)(=O)=O)cc5)nc4N)n3)ccc21 | 35.9% | -2% | 31.8% | 13.1% |
| Nc1nc(Nc2ccc(S(N)(=O)=O)cc2)sc1-c1nc(-c2ccc(C(F)(F)F)cc2)cs1 | 4.5% | 2% | -3.6% | 4.2% |
| Nc1nc(Nc2ccc(S(N)(=O)=O)cc2)sc1-c1nc(-c2ccc3c(c2)CCC(=O)N3)cs1 | 56.6% | 7% | 42.2% | 15.3% |
| Nc1nc(Nc2ccc(S(N)(=O)=O)cc2)sc1-c1nc(-c2ccccc2OC(=O)c2ccccc2)cs1 | 29% | 9% | 2.3% | -1.6% |
| CCc1cc2c(cc1-c1csc(-c3sc(Nc4ccc(S(N)(=O)=O)cc4)nc3N)n1)C(C)(C)CCC2(C)C | 14.1% | -2% | -3.5% | 1.3% |
| COc1ccc2nc(-c3ccccc3)c(-c3csc(-c4sc(Nc5ccc(S(N)(=O)=O)cc5)nc4N)n3)cc2c1 | 61.4% | 3% | 53.4% | 9.7% |
| Cc1c(-c2csc(-c3sc(Nc4ccc(S(N)(=O)=O)cc4)nc3N)n2)sc2ccccc12 | 9.2% | 3% | -0.3% | 5.6% |
| CC(C)(C)c1cc(-c2csc(-c3sc(Nc4ccc(S(N)(=O)=O)cc4)nc3N)n2)cc(C(C)(C)C)c1O | 25% | -9% | 17% | 17.5% |
| CC(C)c1ccc(Nc2nc(N)c(-c3nc(-c4cc(Br)c(Cl)s4)cs3)s2)cc1 | 26% | 25% | 84.7% | 9.2% |
| COc1cccc(-c2csc(-c3sc(Nc4ccc(C(C)C)cc4)nc3N)n2)c1 | 16% | 10% | 49.3% | 3.8% |
| CCOC(=O)c1ccccc1-c1csc(-c2sc(Nc3ccc(C(C)C)cc3)nc2N)n1 | 29.2% | 26% | 81.6% | 26% |
| Cc1c(C)c(C)c(-c2csc(-c3sc(Nc4ccc(C(C)C)cc4)nc3N)n2)c(C)c1C | 39.9% | 59% | 84.7% | 34.9% |
| CC(C)c1ccc(Nc2nc(N)c(-c3nc(-c4cc(-c5ccccc5)no4)cs3)s2)cc1 | 2.4% | 13% | 50.4% | -4.7% |
| Cc1c(F)cc(-c2csc(-c3sc(Nc4ccc(C(C)C)cc4)nc3N)n2)cc1Cl | 28.2% | 18% | 88.6% | 22.8% |
